From ChEMBL document CHEMBL5096202, “Carbon-silicon switch led to the discovery of novel synthetic cannabinoids with therapeutic effects in a mouse model of multiple sclerosis” (Eur J Med Chem, 2021)
Active and inactive are the calls of the source. No cut-off for these calls is given here.

System: not listed separately
Assay: Metabolic stability in rat liver microsomes assessed as half life
Type: ADME, Microsome
Details: not given
Molecule `CCCCCCC(C)(C)c1cc(OC)c([C@H]2C=C(CO)[C@H]3C[C@@H]2C3(C)C)c(OC)c1` has a half-life of 18.2 min. Work on `CCCCCC[Si](C)(C)c1cc(OC)c([C@H]2C=C(CO)[C@H]3C[C@@H]2C3(C)C)c(OC)c1` yielded a half-life of 58.9 min. `C=C(C)[C@@H]1CCC(C)=C[C@H]1c1c(O)cc(CCCCC)cc1O` [CANNABIDIOL] gave a half-life of 1.44 min.

System: not listed separately
Assay: AUClast in C57BL/6 mouse at 10 mg/kg, ip measured upto 24 hrs by LC-MS/MS analysis
Type: ADME, organism-based
Design: time < 24 hrs, dose 10 mg/kg, route ip
Details: in vivo
For `CCCCCC[Si](C)(C)c1cc(OC)c([C@H]2C=C(CO)[C@H]3C[C@@H]2C3(C)C)c(OC)c1`, the AUC(0-t) at 24 h was 11600 ng·h/mL.

System: not listed separately
Assay: Metabolic stability in mouse liver microsomes assessed as half life
Type: ADME, Microsome
Details: not given
`CCCCCCC(C)(C)c1cc(OC)c([C@H]2C=C(CO)[C@H]3C[C@@H]2C3(C)C)c(OC)c1` showed a half-life of 7.84 min. With `CCCCCC[Si](C)(C)c1cc(OC)c([C@H]2C=C(CO)[C@H]3C[C@@H]2C3(C)C)c(OC)c1` the half-life was 31.5 min. `C=C(C)[C@@H]1CCC(C)=C[C@H]1c1c(O)cc(CCCCC)cc1O` [CANNABIDIOL] showed a half-life of 1.11 min.

Molecular target: Cannabinoid receptor 1 (Homo sapiens, UniProt P21554)
Sequence (P21554 whole entry): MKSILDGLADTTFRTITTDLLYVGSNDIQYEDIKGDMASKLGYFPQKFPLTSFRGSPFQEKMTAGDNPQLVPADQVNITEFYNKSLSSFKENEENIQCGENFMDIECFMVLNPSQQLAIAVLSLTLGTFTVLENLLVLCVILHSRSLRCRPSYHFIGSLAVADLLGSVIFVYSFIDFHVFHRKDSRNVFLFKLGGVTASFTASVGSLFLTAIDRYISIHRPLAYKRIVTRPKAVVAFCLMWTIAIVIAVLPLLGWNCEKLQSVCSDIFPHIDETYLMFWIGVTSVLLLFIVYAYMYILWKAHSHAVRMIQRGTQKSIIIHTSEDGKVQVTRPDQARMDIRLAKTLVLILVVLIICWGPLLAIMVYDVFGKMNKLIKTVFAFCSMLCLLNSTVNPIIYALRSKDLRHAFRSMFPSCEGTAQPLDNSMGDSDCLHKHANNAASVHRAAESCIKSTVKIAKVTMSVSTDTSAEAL
Assay: Displacement of [3H]-CP55940 from recombinant human CB1 receptor expressed in CHO cells assessed as inhibition constant incubated for 120 mins by radioligand binding assay
Type: cell-based
Details: not given
In the case of `CCCCCC[Si](C)(C)c1cc(OC)c([C@H]2C=C(CO)[C@H]3C[C@@H]2C3(C)C)c(OC)c1`, the Ki is reported as 2890 nM.

System: not listed separately
Assay: Metabolic stability in rat liver microsomes assessed as intrinsic clearance
Type: ADME, Microsome
Details: read-out: CLH
`CCCCCCC(C)(C)c1cc(OC)c([C@H]2C=C(CO)[C@H]3C[C@@H]2C3(C)C)c(OC)c1` gave a CLint scaled of 137 mL/min/kg. For `CCCCCC[Si](C)(C)c1cc(OC)c([C@H]2C=C(CO)[C@H]3C[C@@H]2C3(C)C)c(OC)c1`, the CLint scaled was 42.1 mL/min/kg. `C=C(C)[C@@H]1CCC(C)=C[C@H]1c1c(O)cc(CCCCC)cc1O` [CANNABIDIOL] gave a CLint scaled of 4900 mL/min/kg.

System: Mus musculus
Assay: (§1) Antiinflammatory activity in MOG (35 to 55 residues)/pertussis toxin-induced experimental autoimmune encephalomyelitis C57BL/6 mouse model assessed as reduction in demyelination in transverse section of lumbar spinal cords at 10 to 30 mg/kg, ip administered starting from day 3 to day 28 by LFB staining based analysis
Type: functional, organism-based
Details: dose 10-30 mg/kg, time 25.0 day
For `CCCCCC[Si](C)(C)c1cc(OC)c([C@H]2C=C(CO)[C@H]3C[C@@H]2C3(C)C)c(OC)c1`, the Activity was “Active”.

System: not listed separately
Assay: Metabolic stability in human liver microsomes assessed as intrinsic clearance
Type: ADME, Microsome
Details: read-out: CLH
Work on `CCCCCCC(C)(C)c1cc(OC)c([C@H]2C=C(CO)[C@H]3C[C@@H]2C3(C)C)c(OC)c1` yielded a CLint scaled of 85.4 mL/min/kg. With `CCCCCC[Si](C)(C)c1cc(OC)c([C@H]2C=C(CO)[C@H]3C[C@@H]2C3(C)C)c(OC)c1` the CLint scaled was 35 mL/min/kg. Work on `C=C(C)[C@@H]1CCC(C)=C[C@H]1c1c(O)cc(CCCCC)cc1O` [CANNABIDIOL] yielded a CLint scaled of 390 mL/min/kg.

System: Mus musculus
Assay: as §1, with “of inflammatory cell infiltration” for “in demyelination”, “H&E” for “LFB”
Type: functional, organism-based
Details: dose 10-30 mg/kg, time 25.0 day
For `CCCCCC[Si](C)(C)c1cc(OC)c([C@H]2C=C(CO)[C@H]3C[C@@H]2C3(C)C)c(OC)c1`, the Activity was “Active”.

System: Mus musculus
Assay: as §1, with “H&E” for “LFB”
Type: functional, organism-based
Details: dose 10-30 mg/kg, time 25.0 day
In the case of `CCCCCC[Si](C)(C)c1cc(OC)c([C@H]2C=C(CO)[C@H]3C[C@@H]2C3(C)C)c(OC)c1`, the Activity is reported as “Active”.

Molecular target: T1, Cannabinoid receptor 2 (Homo sapiens, UniProt P34972)
T1 sequence (P34972 whole entry): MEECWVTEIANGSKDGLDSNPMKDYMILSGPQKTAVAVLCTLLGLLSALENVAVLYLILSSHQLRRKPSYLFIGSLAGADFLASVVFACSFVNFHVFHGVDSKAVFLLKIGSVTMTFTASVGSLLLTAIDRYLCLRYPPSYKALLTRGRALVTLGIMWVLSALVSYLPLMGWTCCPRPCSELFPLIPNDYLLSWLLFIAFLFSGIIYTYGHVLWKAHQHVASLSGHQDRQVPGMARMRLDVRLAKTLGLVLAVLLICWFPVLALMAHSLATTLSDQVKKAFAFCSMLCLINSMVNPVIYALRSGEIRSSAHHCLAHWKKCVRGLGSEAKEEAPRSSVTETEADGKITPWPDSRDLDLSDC
Assay: Agonist activity at recombinant human CB2 receptor expressed in CHO cells assessed as inhibition of forskolin-induced cAMP accumulation by measuring maximum efficacy preincubated for 15 mins followed by forskolin stimulation and measured after 15 mins by HTRF assay relative to control
Type: functional, cell-based
Details: filed as agonist, time 30.0 min
For `CCCCCCC(C)(C)c1cc(OC)c([C@H]2C=C(CO)[C@H]3C[C@@H]2C3(C)C)c(OC)c1`, the Emax was 101%. In the case of `CCCCCC[Si](C)(C)c1cc(OC)c([C@H]2C=C(CO)[C@H]3C[C@@H]2C3(C)C)c(OC)c1`, the Emax is reported as 90.6%.

System: Mus musculus
Assay: as §1, with “infarcted brain proportion” for “demyelination in transverse section of lumbar spinal cords”, “TTC” for “LFB”, “analysis relative to control” for “analysis”
Type: functional
Design: scale not given: the % may be the effect or the level left
Details: dose 10-30 mg/kg, time 25 day
With `CCCCCC[Si](C)(C)c1cc(OC)c([C@H]2C=C(CO)[C@H]3C[C@@H]2C3(C)C)c(OC)c1` the Activity was 90%.

System: not listed separately
Assay: Toxicity in MOG (35 to 55 residues)/pertussis toxin-induced experimental autoimmune encephalomyelitis C57BL/6 mouse model assessed as body weight loss at 10 to 30 mg/kg, ip administered starting from day 3 to day 28
Type: organism-based
Details: in vivo, 600 h, dose 10-30 mg/kg, time 25 day
With `CCCCCC[Si](C)(C)c1cc(OC)c([C@H]2C=C(CO)[C@H]3C[C@@H]2C3(C)C)c(OC)c1` the Activity was “Non-Toxic”.

System: Mus musculus
Assay: Antiinflammatory activity in MOG (35 to 55 residues)/pertussis toxin-induced experimental autoimmune encephalomyelitis C57BL/6 mouse model assessed as reduction in clinical score administered intraperitoneally starting from day 3 to day 28
Type: functional, organism-based
Details: route ip, time 25.0 day, DDE = dose-dependent effect
In the case of `CCCCCC[Si](C)(C)c1cc(OC)c([C@H]2C=C(CO)[C@H]3C[C@@H]2C3(C)C)c(OC)c1`, the Activity is reported as “Dde”.

System: not listed separately
Assay: Metabolic stability in mouse liver microsomes assessed as intrinsic clearance
Type: ADME, Microsome
Details: read-out: CLH
Work on `CCCCCCC(C)(C)c1cc(OC)c([C@H]2C=C(CO)[C@H]3C[C@@H]2C3(C)C)c(OC)c1` yielded a CLint scaled of 696 mL/min/kg. `CCCCCC[Si](C)(C)c1cc(OC)c([C@H]2C=C(CO)[C@H]3C[C@@H]2C3(C)C)c(OC)c1` showed a CLint scaled of 173 mL/min/kg. `C=C(C)[C@@H]1CCC(C)=C[C@H]1c1c(O)cc(CCCCC)cc1O` [CANNABIDIOL] gave a CLint scaled of 1720 mL/min/kg.

System: not listed separately
Assay: Toxicity in MOG (35 to 55 residues)/pertussis toxin-induced experimental autoimmune encephalomyelitis C57BL/6 mouse model assessed as side effects at 10 to 30 mg/kg, ip administered once daily starting from day 3 to day 28
Type: organism-based
Details: in vivo, 600 h, dose 10-30 mg/kg, time 25 day
For `CCCCCC[Si](C)(C)c1cc(OC)c([C@H]2C=C(CO)[C@H]3C[C@@H]2C3(C)C)c(OC)c1`, the Activity was “Non-Toxic”.

System: not listed separately
Assay: Tmax in C57BL/6 mouse at 10 mg/kg, ip measured upto 24 hrs by LC-MS/MS analysis
Type: ADME, organism-based
Details: in vivo
With `CCCCCC[Si](C)(C)c1cc(OC)c([C@H]2C=C(CO)[C@H]3C[C@@H]2C3(C)C)c(OC)c1` the Tmax was 120 min.

Molecular target: T1, Cannabinoid receptor 2
Assay: Displacement of [3H]-CP55940 from recombinant human CB2 receptor expressed in CHO cells assessed as inhibition constant incubated for 120 mins by radioligand binding assay
Type: cell-based
Details: not given
Molecule `CCCCCC[Si](C)(C)c1cc(OC)c([C@H]2C=C(CO)[C@H]3C[C@@H]2C3(C)C)c(OC)c1` has a Ki of 4930 nM.

System: Mus musculus
Assay: as §1, with “of inflammatory cell infiltration” for “in demyelination”
Type: functional, organism-based
Details: dose 10-30 mg/kg, time 25.0 day
With `CCCCCC[Si](C)(C)c1cc(OC)c([C@H]2C=C(CO)[C@H]3C[C@@H]2C3(C)C)c(OC)c1` the Activity was “Active”.

System: not listed separately
Assay: Toxicity in MOG (35 to 55 residues)/pertussis toxin-induced experimental autoimmune encephalomyelitis C57BL/6 mouse model assessed as motor defects at 30 mg/kg, ip administered once daily starting from day 3 to day 28
Type: organism-based
Details: in vivo, 600 h, time 25 day
In the case of `CCCCCC[Si](C)(C)c1cc(OC)c([C@H]2C=C(CO)[C@H]3C[C@@H]2C3(C)C)c(OC)c1`, the Activity is reported as “Non-Toxic”.

System: not listed separately
Assay: Half life in C57BL/6 mouse at 10 mg/kg, ip measured upto 24 hrs by LC-MS/MS analysis
Type: ADME, organism-based
Details: in vivo
`CCCCCC[Si](C)(C)c1cc(OC)c([C@H]2C=C(CO)[C@H]3C[C@@H]2C3(C)C)c(OC)c1` gave a half-life of 407 min.

Molecular target: T1, Cannabinoid receptor 2
Assay: Agonist activity at recombinant human CB2 receptor expressed in CHO cells assessed as inhibition of forskolin-induced cAMP accumulation preincubated for 15 mins followed by forskolin stimulation and measured after 15 mins by HTRF assay
Type: functional, cell-based
Details: not given
For `CCCCCC[Si](C)(C)c1cc(OC)c([C@H]2C=C(CO)[C@H]3C[C@@H]2C3(C)C)c(OC)c1`, the EC50 was 460 nM.

System: not listed separately
Assay: AUCinfinity in C57BL/6 mouse at 10 mg/kg, ip measured upto 24 hrs by LC/MS-MS analysis
Type: ADME, organism-based
Design: dose 10 mg/kg, time < 24 hrs, route ip
Details: in vivo
Molecule `CCCCCC[Si](C)(C)c1cc(OC)c([C@H]2C=C(CO)[C@H]3C[C@@H]2C3(C)C)c(OC)c1` has an AUC(0-inf) of 12300 ng·h/mL.

System: not listed separately
Assay: Cmax in C57BL/6 mouse at 10 mg/kg, ip measured upto 24 hrs by LC-MS/MS analysis
Type: ADME, organism-based
Design: dose 10 mg/kg, time < 24 hrs, route ip
Details: in vivo
With `CCCCCC[Si](C)(C)c1cc(OC)c([C@H]2C=C(CO)[C@H]3C[C@@H]2C3(C)C)c(OC)c1` the Cmax was 2520 ng/mL.

System: not listed separately
Assay: Toxicity in MOG (35 to 55 residues)/pertussis toxin-induced experimental autoimmune encephalomyelitis C57BL/6 mouse model assessed as tolerance at 30 mg/kg, ip administered once daily starting from day 3 to day 28
Type: organism-based
Details: in vivo, 600 h, time 25 day
With `CCCCCC[Si](C)(C)c1cc(OC)c([C@H]2C=C(CO)[C@H]3C[C@@H]2C3(C)C)c(OC)c1` the Activity was “Non-Toxic”.

System: not listed separately
Assay: Metabolic stability in human liver microsomes assessed as half life
Type: ADME, Microsome
Details: not given
In the case of `CCCCCCC(C)(C)c1cc(OC)c([C@H]2C=C(CO)[C@H]3C[C@@H]2C3(C)C)c(OC)c1`, the half-life is reported as 20.4 min. Molecule `CCCCCC[Si](C)(C)c1cc(OC)c([C@H]2C=C(CO)[C@H]3C[C@@H]2C3(C)C)c(OC)c1` has a half-life of 49.7 min. With `C=C(C)[C@@H]1CCC(C)=C[C@H]1c1c(O)cc(CCCCC)cc1O` [CANNABIDIOL] the half-life was 4.46 min.
